Results taken from patent publication US10696707B2, “Polyene macrolide derivative” (Shionogi & Co., Ltd., priority 2014, dated 2020).
≈ marks a conversion by molar mass, not a printed value. Like-named read-outs stand apart in the source and are kept apart here.

Key:
Type in all cases: cell-based
C. albicans ATCC90028 = assay: Antifungal activity test, MIC by broth microdilution (CLSI M27-A3)
Description: (§1) The Minimum Inhibitory Concentration (MIC) values of the present compound against yeast and filamentous fungi were determined by broth microdilution assay according to the Clinical Laboratory Standards Institute (CLSI) guidelines outlined in documents M27-A3 and M38-A2. The medium used in the assay consisted of RPMI1640 (with glutamine, without bicarbonate) with 2% glucose and 0.165 mol/L morpholinepropanesulfonic acid (MOPS) with pH adjusted to 7.0 using 1 mol/L sodium hydroxide. The present compound was dissolved in dimethyl sulfoxide (DMSO). A series of two-fold dilutions were prepared in DMSO, and then 2 μL of the diluted compound was added to each well in 96-well sterile plates. Each inoculum was prepared by diluting a suspension of Candida spp. or a conidia suspension of Aspergillus spp. suspended in sterile saline solution, and then 200 μL was added to each well to a predetermined concentration using RPMI/MOPS (final concentration for each solution: approximately 1×10^3 cells/mL and approximately 1×10^4 CFU/mL). Plates of Candida spp. and Aspergillus spp. were incubated at 35° C. for 24-48 hours. The MIC was defined as the lowest concentration giving 100% inhibition compared to the growth control.

A. flavus ATCC204304 = assay: Antifungal activity test, MIC by broth microdilution (CLSI M38-A2)
Description: as §1

A. fumigatus ATCC204305 = assay: as above
Description: as §1

[1] = C. albicans ATCC90028, broth microdilution, 35° C., 24-48 hours, 100% inhibition
[2] = A. flavus ATCC204304, broth microdilution, 35° C., 24-48 hours, 100% inhibition
[3] = A. fumigatus ATCC204305, broth microdilution, 35° C., 24-48 hours, 100% inhibition

| SMILES | MIC (C. albicans ATCC90028; [1]) [µg/mL] | MIC (A. flavus ATCC204304; [2]) [µg/mL] | MIC (A. fumigatus ATCC204305; [3]) [µg/mL] | also measured |
| --- | --- | --- | --- | --- |
| C[C@@H]1[C@H](O)[C@@H](C)/C=C/C=C/C=C/C=C/C=C/C=C/C=C/[C@H](O[C@@H]2O[C@H](C)[C@@H](O)[C@H](N)[C@@H]2O)C[C@@H]2O[C@](O)(C[C@@H](O)C[C@@H](O)[C@H](O)CC[C@@H](O)C[C@@H](O)CC(=O)O[C@H]1C)C[C@H](O)[C@H]2NC(=O)NCC1CN(CCO)C1 [I-158] | 0.25 (≈ 0.238 µM) | 1 (≈ 0.951 µM) | 1 (≈ 0.951 µM) |  |
| C[C@@H]1[C@H](O)[C@@H](C)/C=C/C=C/C=C/C=C/C=C/C=C/C=C/[C@H](O[C@@H]2O[C@H](C)[C@@H](O)[C@H](N)[C@@H]2O)C[C@@H]2O[C@](O)(C[C@@H](O)C[C@@H](O)[C@H](O)CC[C@@H](O)C[C@@H](O)CC(=O)O[C@H]1C)C[C@H](O)[C@H]2NC(=O)NC1CN(CCO)C1 [I-165] | 0.25 (≈ 0.241 µM) | 1 (≈ 0.964 µM) | 1 (≈ 0.964 µM) |  |
| C[C@@H]1[C@H](O)[C@@H](C)/C=C/C=C/C=C/C=C/C=C/C=C/C=C/[C@H](O[C@@H]2O[C@H](C)[C@@H](O)[C@H](N)[C@@H]2O)C[C@@H]2O[C@](O)(C[C@@H](O)C[C@@H](O)[C@H](O)CC[C@@H](O)C[C@@H](O)CC(=O)O[C@H]1C)C[C@H](O)[C@H]2NC(=O)N1CC(O)C1 [I-166] | 0.25 (≈ 0.251 µM) | 0.5 (≈ 0.503 µM) | 1 (≈ 1.01 µM) |  |
| C[C@@H]1[C@H](O)[C@@H](C)/C=C/C=C/C=C/C=C/C=C/C=C/C=C/[C@H](O[C@@H]2O[C@H](C)[C@@H](O)[C@H](N)[C@@H]2O)C[C@@H]2O[C@](O)(C[C@@H](O)C[C@@H](O)[C@H](O)CC[C@@H](O)C[C@@H](O)CC(=O)O[C@H]1C)C[C@H](O)[C@H]2NC(=O)N1CC(N(C)C)C1 [I-189] | 0.25 (≈ 0.245 µM) | 0.5 (≈ 0.49 µM) | 0.5 (≈ 0.49 µM) |  |
| C[C@@H]1[C@H](O)[C@@H](C)/C=C/C=C/C=C/C=C/C=C/C=C/C=C/[C@H](O[C@@H]2O[C@H](C)[C@@H](O)[C@H](N)[C@@H]2O)C[C@@H]2O[C@](O)(C[C@@H](O)C[C@@H](O)[C@H](O)CC[C@@H](O)C[C@@H](O)CC(=O)O[C@H]1C)C[C@H](O)[C@H]2NC(=O)NCC1(CO)COC1 [I-193] | 0.25 (≈ 0.241 µM) | 0.5 (≈ 0.482 µM) | 1 (≈ 0.963 µM) |  |
| C[C@@H]1[C@H](O)[C@@H](C)/C=C/C=C/C=C/C=C/C=C/C=C/C=C/[C@H](O[C@@H]2O[C@H](C)[C@@H](O)[C@H](N)[C@@H]2O)C[C@@H]2O[C@](O)(C[C@@H](O)C[C@@H](O)[C@H](O)CC[C@@H](O)C[C@@H](O)CC(=O)O[C@H]1C)C[C@H](O)[C@H]2NC(=O)N1C[C@H](O)CC1C(=O)O (stereo partly drawn) [I-230] | 0.5 (≈ 0.475 µM) | 0.5 (≈ 0.475 µM) | 1 (≈ 0.95 µM) |  |
| C[C@@H]1[C@H](O)[C@@H](C)/C=C/C=C/C=C/C=C/C=C/C=C/C=C/[C@H](O[C@@H]2O[C@H](C)[C@@H](O)[C@H](N)[C@@H]2O)C[C@@H]2O[C@](O)(C[C@@H](O)C[C@@H](O)[C@H](O)CC[C@@H](O)C[C@@H](O)CC(=O)O[C@H]1C)C[C@H](O)[C@H]2NC(=O)N1C[C@@H](O)[C@H](O)C1 [I-260] |  |  |  | MIC (C. albicans ATCC90028; Candida albicans, C. albicans ATCC90028, broth microdilution, 35° C., 24-48 hours, 100% inhibition, read-out: MIC): 0.5 µg/mL (≈ 0.488 µM); MIC (A. flavus ATCC204304; Aspergillus flavus, A. flavus ATCC204304, broth microdilution, 35° C., 24-48 hours, 100% inhibition, read-out: MIC): 0.5 µg/mL (≈ 0.488 µM); MIC (A. fumigatus ATCC204305; Aspergillus fumigatus, A. fumigatus ATCC204305, broth microdilution, 35° C., 24-48 hours, 100% inhibition, read-out: MIC): 1 µg/mL (≈ 0.976 µM) |
| C[C@@H]1[C@H](O)[C@@H](C)/C=C/C=C/C=C/C=C/C=C/C=C/C=C/[C@H](O[C@@H]2O[C@H](C)[C@@H](O)[C@H](N)[C@@H]2O)C[C@@H]2O[C@](O)(C[C@@H](O)C[C@@H](O)[C@H](O)CC[C@@H](O)C[C@@H](O)CC(=O)O[C@H]1C)C[C@H](O)[C@H]2NC(=O)N(O)CC(N)=O [I-273] |  |  |  | MIC (C. albicans ATCC90028; Candida albicans, ATCC90028): 0.25 µg/mL (≈ 0.247 µM); MIC (A. flavus ATCC204304; Aspergillus flavus, ATCC204304): 0.5 µg/mL (≈ 0.494 µM); MIC (A. fumigatus ATCC204305; Aspergillus fumigatus, ATCC204305): 0.5 µg/mL (≈ 0.494 µM) |

Continued, in another order:

| MIC (C. albicans ATCC90028; [1]) [µg/mL] | MIC (A. flavus ATCC204304; [2]) [µg/mL] | MIC (A. fumigatus ATCC204305; [3]) [µg/mL] | SMILES | also measured |
| --- | --- | --- | --- | --- |
| 0.25 (≈ 0.251 µM) | 0.5 (≈ 0.502 µM) | 0.5 (≈ 0.502 µM) | C[C@@H]1[C@H](O)[C@@H](C)/C=C/C=C/C=C/C=C/C=C/C=C/C=C/[C@H](O[C@@H]2O[C@H](C)[C@@H](O)[C@H](N)[C@@H]2O)C[C@@H]2O[C@](O)(C[C@@H](O)C[C@@H](O)[C@H](O)CC[C@@H](O)C[C@@H](O)CC(=O)O[C@H]1C)C[C@H](O)[C@H]2NC(=O)NCC(N)=O [I-90] |  |
| 0.25 (≈ 0.247 µM) | 0.5 (≈ 0.494 µM) | 1 (≈ 0.988 µM) | C[C@@H]1[C@H](O)[C@@H](C)/C=C/C=C/C=C/C=C/C=C/C=C/C=C/[C@H](O[C@@H]2O[C@H](C)[C@@H](O)[C@H](N)[C@@H]2O)C[C@@H]2O[C@](O)(C[C@@H](O)C[C@@H](O)[C@H](O)CC[C@@H](O)C[C@@H](O)CC(=O)O[C@H]1C)C[C@H](O)[C@H]2NC(=O)NC[C@@H](O)CO [I-119] |  |
| 0.5 (≈ 0.468 µM) | 0.5 (≈ 0.468 µM) | 1 (≈ 0.935 µM) | C[C@@H]1[C@H](O)[C@@H](C)/C=C/C=C/C=C/C=C/C=C/C=C/C=C/[C@H](O[C@@H]2O[C@H](C)[C@@H](O)[C@H](N)[C@@H]2O)C[C@@H]2O[C@](O)(C[C@@H](O)C[C@@H](O)[C@H](O)CC[C@@H](O)C[C@@H](O)CC(=O)O[C@H]1C)C[C@H](O)[C@H]2NC(=O)NCC(=O)NC(CO)CO [I-155] |  |
| 0.5 (≈ 0.483 µM) | 0.5 (≈ 0.483 µM) | 1 (≈ 0.967 µM) | C[C@@H]1[C@H](O)[C@@H](C)/C=C/C=C/C=C/C=C/C=C/C=C/C=C/[C@H](O[C@@H]2O[C@H](C)[C@@H](O)[C@H](N)[C@@H]2O)C[C@@H]2O[C@](O)(C[C@@H](O)C[C@@H](O)[C@H](O)CC[C@@H](O)C[C@@H](O)CC(=O)O[C@H]1C)C[C@H](O)[C@H]2NC(=O)NCC(=O)NCC#N [I-157] |  |
| 0.25 (≈ 0.245 µM) | 0.5 (≈ 0.49 µM) | 1 (≈ 0.979 µM) | C[C@@H]1[C@H](O)[C@@H](C)/C=C/C=C/C=C/C=C/C=C/C=C/C=C/[C@H](O[C@@H]2O[C@H](C)[C@@H](O)[C@H](N)[C@@H]2O)C[C@@H]2O[C@](O)(C[C@@H](O)C[C@@H](O)[C@H](O)CC[C@@H](O)C[C@@H](O)CC(=O)O[C@H]1C)C[C@H](O)[C@H]2NC(=O)NCC1CN(C)C1 [I-159] |  |
| 0.25 (≈ 0.247 µM) | 1 (≈ 0.989 µM) | 1 (≈ 0.989 µM) | C[C@@H]1[C@H](O)[C@@H](C)/C=C/C=C/C=C/C=C/C=C/C=C/C=C/[C@H](O[C@@H]2O[C@H](C)[C@@H](O)[C@H](N)[C@@H]2O)C[C@@H]2O[C@](O)(C[C@@H](O)C[C@@H](O)[C@H](O)CC[C@@H](O)C[C@@H](O)CC(=O)O[C@H]1C)C[C@H](O)[C@H]2NC(=O)NC[C@H](N)CO [I-162] |  |
| 0.25 (≈ 0.244 µM) | 1 (≈ 0.975 µM) | 1 (≈ 0.975 µM) | CC1C=CC=CC=CC=CC=CC=CC=CC(OC2OC(C)C(O)C(N)C2O)CC2OC(O)(CC(O)CC(O)C(O)CCC(O)CC(O)CC(=O)OC(C)C(C)C1O)CC(O)C2NC(=O)NCC(N)CCO (stereo not drawn) [I-163] |  |
| 0.25 (≈ 0.247 µM) | 1 (≈ 0.989 µM) | 1 (≈ 0.989 µM) | C[C@@H]1[C@H](O)[C@@H](C)/C=C/C=C/C=C/C=C/C=C/C=C/C=C/[C@H](O[C@@H]2O[C@H](C)[C@@H](O)[C@H](N)[C@@H]2O)C[C@@H]2O[C@](O)(C[C@@H](O)C[C@@H](O)[C@H](O)CC[C@@H](O)C[C@@H](O)CC(=O)O[C@H]1C)C[C@H](O)[C@H]2NC(=O)NC(CN)CO (stereo partly drawn) [I-169] |  |
| 0.5 (≈ 0.483 µM) | 0.5 (≈ 0.483 µM) | 1 (≈ 0.965 µM) | C[C@@H]1[C@H](O)[C@@H](C)/C=C/C=C/C=C/C=C/C=C/C=C/C=C/[C@H](O[C@@H]2O[C@H](C)[C@@H](O)[C@H](N)[C@@H]2O)C[C@@H]2O[C@](O)(C[C@@H](O)C[C@@H](O)[C@H](O)CC[C@@H](O)C[C@@H](O)CC(=O)O[C@H]1C)C[C@H](O)[C@H]2NC(=O)NCC1(C(=O)O)CC1 [I-202] |  |
| 0.5 (≈ 0.487 µM) | 0.5 (≈ 0.487 µM) | 1 (≈ 0.974 µM) | C[C@@H]1[C@H](O)[C@@H](C)/C=C/C=C/C=C/C=C/C=C/C=C/C=C/[C@H](O[C@@H]2O[C@H](C)[C@@H](O)[C@H](N)[C@@H]2O)C[C@@H]2O[C@](O)(C[C@@H](O)C[C@@H](O)[C@H](O)CC[C@@H](O)C[C@@H](O)CC(=O)O[C@H]1C)C[C@H](O)[C@H]2NC(=O)NNC[C@H](O)CO [I-227] |  |
| 0.25 (≈ 0.258 µM) | 0.5 (≈ 0.516 µM) | 0.5 (≈ 0.516 µM) | C[C@@H]1[C@H](O)[C@@H](C)/C=C/C=C/C=C/C=C/C=C/C=C/C=C/[C@H](O[C@@H]2O[C@H](C)[C@@H](O)[C@H](N)[C@@H]2O)C[C@@H]2O[C@](O)(C[C@@H](O)C[C@@H](O)[C@H](O)CC[C@@H](O)C[C@@H](O)CC(=O)O[C@H]1C)C[C@H](O)[C@H]2NC(=O)N(C)O [I-266] |  |
